According to US12606520B2, “Calpain-2 inhibitor compounds and methods of treatment” (WESTERN UNIVERSITY OF HEALTH SCIENCES, priority 2020, dated 2026):
Entries after “also recorded” stand apart in the source; their conditions may differ.

Experiments:
[1] = target: T1, human calpain-1 (purified from erythrocytes, ecalpain-1) (Homo sapiens, UniProt P07384); assay: Inhibition of human calpain-1 purified from erythrocytes; assay type: biochemical; conditions: highest concentration tested, 3 μM
T1 construct: human calpain-1 (purified from erythrocytes, ecalpain-1); from tissue; host or cells: human erythrocytes
T1 sequence (P07384 1-714): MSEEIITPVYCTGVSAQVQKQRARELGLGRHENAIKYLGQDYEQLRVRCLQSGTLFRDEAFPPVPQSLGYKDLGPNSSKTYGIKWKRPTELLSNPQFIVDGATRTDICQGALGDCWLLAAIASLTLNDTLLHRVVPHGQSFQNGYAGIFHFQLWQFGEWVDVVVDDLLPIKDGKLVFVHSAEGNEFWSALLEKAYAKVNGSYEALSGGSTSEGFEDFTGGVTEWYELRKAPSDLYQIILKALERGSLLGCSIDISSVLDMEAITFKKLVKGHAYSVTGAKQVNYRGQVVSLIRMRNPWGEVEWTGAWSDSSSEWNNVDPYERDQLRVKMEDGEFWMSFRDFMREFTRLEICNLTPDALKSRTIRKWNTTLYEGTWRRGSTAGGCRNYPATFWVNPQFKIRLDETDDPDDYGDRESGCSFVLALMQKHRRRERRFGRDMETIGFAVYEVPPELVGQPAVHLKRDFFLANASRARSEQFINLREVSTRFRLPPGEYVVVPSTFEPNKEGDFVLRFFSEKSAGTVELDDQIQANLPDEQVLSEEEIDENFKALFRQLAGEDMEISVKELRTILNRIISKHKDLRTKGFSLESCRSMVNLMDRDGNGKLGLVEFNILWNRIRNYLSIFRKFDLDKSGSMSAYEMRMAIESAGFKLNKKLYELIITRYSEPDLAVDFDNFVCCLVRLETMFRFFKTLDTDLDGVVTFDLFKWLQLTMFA
T1 sequence (P04632 1-268 partner): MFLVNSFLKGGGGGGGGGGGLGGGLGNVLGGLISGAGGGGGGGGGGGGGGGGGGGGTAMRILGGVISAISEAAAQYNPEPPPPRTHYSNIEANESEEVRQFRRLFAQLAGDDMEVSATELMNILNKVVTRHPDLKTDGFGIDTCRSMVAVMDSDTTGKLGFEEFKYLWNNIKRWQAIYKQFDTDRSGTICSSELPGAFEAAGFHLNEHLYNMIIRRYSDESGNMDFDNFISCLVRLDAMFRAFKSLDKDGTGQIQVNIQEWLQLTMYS
Protocol: (§1) Various concentrations of NA112 in the liposomal formulation were incubated with human calpain-1 (purified from erythrocytes, ecalpain-1) or a recombinant human calpain-2 (hcalpain-2) and calpain activity assayed as in FIG. 1. IC50 were determined and transformed into Ki values (FIG. 10A, 10B). Values previously obtained with NA112 dissolved in DMSO are shown for comparison (FIG. 10B).
(§2) Cerebellar homogenates from wild-type (WT) or calpain-1 Knock-out (KO) mice were incubated with 20 μM calcium to activate calpain-1 or with 2 mM calcium to activate calpain-2, respectively, and increasing concentrations of NA184.
(§3) Like in NA112, there are 2 chiral centers in NA184. The inhibitory activity of the compounds NA184A (S-S isomer) and NA184B (S-R stereoisomer) against erythrocyte human calpain-1 (ecalpain-1) and recombinant human calpain-2 (hcalpain-2) were determined.

[2] = target: T2, recombinant human calpain-2 (hcalpain-2) (Homo sapiens, UniProt P17655); assay: Inhibition of recombinant human calpain-2; assay type: biochemical; conditions: highest concentration tested, 3 μM
T2 sequence (P17655 1-700): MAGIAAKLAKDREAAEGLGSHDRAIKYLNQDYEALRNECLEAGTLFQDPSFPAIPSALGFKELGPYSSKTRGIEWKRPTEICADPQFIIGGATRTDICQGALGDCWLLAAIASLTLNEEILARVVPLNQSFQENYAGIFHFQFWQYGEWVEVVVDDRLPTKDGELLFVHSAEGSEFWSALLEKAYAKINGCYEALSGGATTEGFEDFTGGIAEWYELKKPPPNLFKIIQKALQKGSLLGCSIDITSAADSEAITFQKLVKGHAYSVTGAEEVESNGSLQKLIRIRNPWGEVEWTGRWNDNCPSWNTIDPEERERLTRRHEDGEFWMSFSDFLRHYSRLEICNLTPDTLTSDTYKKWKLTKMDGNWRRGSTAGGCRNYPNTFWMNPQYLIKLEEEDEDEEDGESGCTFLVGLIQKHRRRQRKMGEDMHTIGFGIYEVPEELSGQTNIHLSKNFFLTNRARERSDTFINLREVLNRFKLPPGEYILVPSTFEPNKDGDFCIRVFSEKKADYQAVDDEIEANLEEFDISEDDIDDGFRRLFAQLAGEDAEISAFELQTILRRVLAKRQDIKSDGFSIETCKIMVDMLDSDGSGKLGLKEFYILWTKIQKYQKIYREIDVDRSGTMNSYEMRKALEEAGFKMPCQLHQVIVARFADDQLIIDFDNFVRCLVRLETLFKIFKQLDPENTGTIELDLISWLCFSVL
T2 sequence (P04632 1-268 partner): T1 sequence (P04632 1-268 partner)
Protocol: as §1, §2, §3

[3] = Epimerization/inactivation in PBS at 37° C.; assay type: physicochemical
calpain-1 = target: T3, calpain-1 (Homo sapiens, UniProt P07384); assay: Inhibitory activity of NA112 isomers against calpain-1; assay type: biochemical; conditions: highest concentration tested, 3 μM
T3 sequence (P07384 1-714): T1 sequence (P07384 1-714)
T3 sequence (P04632 1-268 partner): T1 sequence (P04632 1-268 partner)
Protocol: (§4) The inhibitory activity of the compounds NA112A (S-S isomer) and NA112B (S-R stereoisomer) against calpain-1 and calpain-2 were determined.

calpain-2 = target: T4, calpain-2 (Homo sapiens, UniProt P17655); assay: Inhibitory activity of NA112 isomers against calpain-2; assay type: biochemical; conditions: highest concentration tested, 3 μM
T4 sequence (P17655 1-700): T2 sequence (P17655 1-700)
T4 sequence (P04632 1-268 partner): T1 sequence (P04632 1-268 partner)
Protocol: as §4

[4] = Stability in mouse plasma at 37° C. (residual inhibition of purified human calpain-2); assay type: in vitro ADME; conditions: β-cyclodextrin formulation, 10 μM
Protocol: NA112 (C12, 0.2 mM) was incubated with mouse plasma at 37° C. for the indicated periods of time. Aliquots were taken and the degree of inhibition of purified human calpain-2 was measured. Results were normalized to the maximum degree of inhibition (100%) measured at to.
NA112A in β-cyclodextrin formulation (10 μM) was incubated in mouse plasma at 37° C. for the indicated periods of time. Aliquots were taken and the degree of inhibition of purified human calpain-2 was measured. Results were normalized to the maximum degree of inhibition (50%) measured at t0.

| Inhibitory activity against ecalpain-1 [1] | Inhibitory activity against hcalpain-2 [2] | Inhibitory activity against calpain-1 (calpain-1) | Inhibitory activity against calpain-2 (calpain-2) | SMILES | Epimerization/inactivation in PBS [3] | Inactivation in mouse plasma [4] |
| --- | --- | --- | --- | --- | --- | --- |
| expected inhibitory activity | expected inhibitory activity |  |  | CC[C@H](NC(=O)[C@H](CC(C)C)NC(=O)NCc1ccccc1)C(=O)C(=O)NCc1cccc(Cl)c1OC [NA184A] | rapidly inactivated; also recorded: rapid epimerization |  |
|  |  | no inhibitory activity | no inhibitory activity | CC[C@@H](NC(=O)[C@H](CC(C)C)NC(=O)NCc1ccccc1)C(=O)C(=O)NCc1cc(OC)cc(OC)c1 [NA112B] |  |  |
| no inhibitory activity | no inhibitory activity |  |  | CC[C@@H](NC(=O)[C@H](CC(C)C)NC(=O)NCc1ccccc1)C(=O)C(=O)NCc1cccc(Cl)c1OC [NA184B] |  |  |
|  |  |  | expected inhibitory activity | CC[C@H](NC(=O)[C@H](CC(C)C)NC(=O)NCc1ccccc1)C(=O)C(=O)NCc1cc(OC)cc(OC)c1 [NA112A, (S)-2-(3-benzylureido)-N-((S)-1-((3,5-dimethoxybenzyl)amino)-1,2-dioxopentan-3-yl)-4-methylpentanamide] |  | rapidly inactivated; also recorded: became inactive |
